This passage reports Km and IC50 results from US20130123360A1, “METHODS AND USES RELATING TO THE IDENTIFICATION OF COMPOUND ASSOCIATED WITH BACTERIAL INFECTION” (SANOFI-AVENTIS DEUTSCHLAND GMBH, priority 2010, published 2013).

Where “and” joins values, the source holds several entries; their conditions need not be identical. Equal entries are not always repeated. Where two headings read alike, the source gives them in different places.

Experiment [1] concerns the target T1, PqsD protein (Pseudomonas aeruginosa, UniProt P20582).
T1 construct: The 1-kb NdeI-EcoRI fragment of pqsD was cloned between the NdeI and EcoRI sites of pET28b(+), resulting in pET28b(+)-pqsD; fused on or other part: N-terminal His tag from pET28b(+)
T1 sequence (P20582 1-337): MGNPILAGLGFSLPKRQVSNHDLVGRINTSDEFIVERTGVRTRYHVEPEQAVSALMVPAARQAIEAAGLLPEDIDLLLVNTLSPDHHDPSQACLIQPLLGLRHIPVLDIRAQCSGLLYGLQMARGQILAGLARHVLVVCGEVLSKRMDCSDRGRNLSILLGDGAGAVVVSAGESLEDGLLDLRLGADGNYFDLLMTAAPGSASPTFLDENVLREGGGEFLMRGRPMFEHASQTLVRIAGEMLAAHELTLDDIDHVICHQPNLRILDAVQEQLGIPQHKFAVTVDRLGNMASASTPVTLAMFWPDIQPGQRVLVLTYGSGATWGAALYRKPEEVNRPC
Put plainly: Determination of kinetic parameters of PqsD (HHQ formation, HPLC-MS2). It counts as biochemical, Pseudomonas aeruginosa UCBPP-PA14. The protocol:
Experimental protocol. […] The carbon-carbon bond formation between carbons 3 and 4 of the quinoline ring is likely to be catalyzed by one of the proteins PqsB, PqsC or PqsD which show all homology to the β-ketoacyl-acyl carrier protein synthase III family. To test of whether PqsD is necessary for HHQ formation, we purified recombinant PqsD protein and tried to readjust HHQ formation in vitro. The heterologous protein was incubated with anthraniloyl-CoA and 3-oxodecanoic acid and the reaction was analyzed by HPLC-MS.
HHQ quantification by HPLC-MS^2—HPLC-MS analysis was carried out using a HPLC system from the Agilent 1100 series coupled to a Brucker Daltonics HCTultra ESI-MS iontrap instrument operated in positive ionization mode. For separation a Onyx Monolythic C18 column (50×2 mm, Phenomenex) was used. […] For HHQ quantification the signal intensities of fragment ion 159.0 Da created by fragmentation of 244.0 Da were used. For creation of the standard curve HHQ standards containing 1, 5, 10, 20, 50, 100 and 200 ng ml^−1 were measured.
The reaction mixtures contained 50 mM Tris-HCl, pH 8.0, PqsD protein (1 μg), 0.2 mM anthraniloyl-CoA and 3-oxodecanoic acid ranging in concentration from 0.02 to 2 mM in a total volume of 50 μl. […] HHQ was quantified by HPLC by injecting 10 μl of the reaction mixture. […]

For experiment [2], the target named is T1, PqsD protein. In words: Inhibition of HHQ formation by PqsD in vitro (HPLC-MS2 quantification of HHQ). It counts as biochemical, Pseudomonas aeruginosa UCBPP-PA14. The following applies: 0.2 mM anthraniloyl-CoA, 0.35 mM 3-oxodecanoic acid, 1 μg PqsD, 2 min preincubation, 2 min at 37° C., pH 8.0. The protocol: Experimental protocol. With the PqsD assay established so far, it is possible to screen for possible inhibitors of HHQ formation by PqsD in vitro. For this purpose the concentrations of anthraniloyl-CoA, 3-oxodecanoic acid and PqsD protein are assigned to fixed values. At first PqsD, anthraniloyl-CoA and the compound to be tested are preincubated for a fixed period. The putative inhibitor is added to the assay in increasing concentrations. The reaction is started by the addition of 3-oxodecanoic acid and incubated for a fixed period. Then the reaction is quenched by the addition of methanol to a final concentration of 50 percent. For each reaction the HHQ formation is quantified by HPLC/MS^2. By comparing the amounts of HHQ formed in presence of the different concentrations of the inhibitor to that of a control reaction without inhibitor, it can be calculated for the inhibitor concentration at which HHQ formation is 50 percent of the control reaction (IC50). […]
HHQ quantification by HPLC-MS^2—HPLC-MS analysis was carried out using a HPLC system from the Agilent 1100 series coupled to a Brucker Daltonics HCTultra ESI-MS iontrap instrument operated in positive ionization mode. […] For HHQ quantification the signal intensities of fragment ion 159.0 Da created by fragmentation of 244.0 Da were used. […]

Broadly, the Km is the concentration of substrate that gives half-maximal velocity. With `CCCCCCCC(=O)CC(=O)O` [3-oxodecanoic acid], the Km at PqsD protein [1] (fixed anthraniloyl-CoA 200 μM, varied 3-oxodecanoic acid 0.02 to 2 mM, 37° C., pH 8.0, triplicates, read-out: Km value of PqsD for 3-oxodecanoic acid) worked out at 562 ± 91 µM; at PqsD protein [1] (fixed anthraniloyl-CoA, varied 3-oxodecanoic acid concentrations, FIG. 4, read-out: Km value of PqsD (figure legend)), 560 µM.

For orientation: IC50 means the concentration that inhibits the measured activity by half. A high value points to weaker potency. Turning to `O=C(Nc1ccccc1C(=O)O)c1ccc(-c2ccccc2)c(Oc2ccccc2)c1` [2-[(2-phenoxybiphenyl-4-carbonyl)amino]benzoic acid], at PqsD protein [2], the half-maximal inhibitory concentration (IC50) is 35 µM and ~35 µM.
